Results: patent US9023336B2, “Deuterium-enriched aldehydes” (Protia, LLC, priority 2013, dated 2015)

Test: Measurement of aldehyde oxidations (air autoxidation of aldehyde to carboxylic acid)
Format: physicochemical
Conditions: for amount of aldehyde remaining / loss of aldehyde: after 24 hours; for amount of aldehyde remaining: aldehyde 1 mmol in triacetin 2.0 mL + water 0.10 mL, stirred at room temperature under air, HPLC (benzaldehyde) or GC (hexanal); for loss of aldehyde: triacetin/water, room temperature, air
Procedure: General Procedure for Measurement of Aldehyde Oxidations
To a 12 mL clear, colorless, glass vial, fitted with a stir bar, was added the aldehyde (1 mmol), triacetin (2.0 mL), and water (0.10 mL, purified by reverse osmosis). The top of the vial was covered with a tissue and the mixture was stirred vigorously at room temperature. In the benzaldehyde reactions, (both H and D), 4.0 μL aliquots were withdrawn at 0, 0.5, 18, 25, 96, and 120 hour time points. These were diluted with ethanol (1.0 mL), and analyzed by HPLC. […] These were diluted with ethanol (1.0 mL) and analyzed by GC.
Instruments and Conditions Used for Analysis:
High pressure liquid chromatography: Agilent XDB C18 50×4.6 mm 1.8 micron column
Solvent A—Water (0.1% TFA)
Solvent B—Acetonitrile (0.07% TFA)
Gradient—5 min 95% A to 95% B then 1 minute hold. 1.5 mL/min
UV Detection (integration) @ 210 and 254 nm
HP 6890GC Column=Agilent DB-5 15 m×0.25 mm capillary column.
35° C. start (2 min hold), ramping to 100° C. at 5° C. per minute
Flame Ion Detection (integration)

Row | SMILES | amount of aldehyde remaining | loss of aldehyde | reduction of autoxidation due to deuterium versus un-enriched aldehyde (after a period of approximately 24 hours)
1 | [2H]C(=O)c1ccccc1 [benzaldehyde-D] | approximately 90% | 10% | over 50%
2 | O=Cc1ccccc1 [benzaldehyde-H, benzaldehyde, reference compound] | approximately 30% | 70% | –
